Test results as given in patent US20080132484A1, “Method for Identifying Inhibitors Using a Homology Model of Polo-Like Kinase 1” (CYCLACEL LIMITED, priority 2003, published 2008).
Entries after “also recorded” stand apart in the source; their conditions may differ. Like-named read-outs stand apart in the source and are kept apart here.

Experiments:
PLK1 [1] = target: T1, PLK1 (Homo sapiens, UniProt P53350); test: PLK1 kinase assay (CDC25C phosphorylation, [γ-32P]-ATP); type: biochemical; details: for inhibition of PLK1: even at concentrations as high as 1 mM; for inhibition of PLK1 function: at concentrations up to 0.2 mM
T1 construct: The PLK1 ORF was cloned into pSSP1 such that the resulting PLK1 translation product would have a 19 amino acid N-terminal tag; made in house; host or cells: Sf9 insect cells (baculovirus)
T1 sequence (P53350 whole entry): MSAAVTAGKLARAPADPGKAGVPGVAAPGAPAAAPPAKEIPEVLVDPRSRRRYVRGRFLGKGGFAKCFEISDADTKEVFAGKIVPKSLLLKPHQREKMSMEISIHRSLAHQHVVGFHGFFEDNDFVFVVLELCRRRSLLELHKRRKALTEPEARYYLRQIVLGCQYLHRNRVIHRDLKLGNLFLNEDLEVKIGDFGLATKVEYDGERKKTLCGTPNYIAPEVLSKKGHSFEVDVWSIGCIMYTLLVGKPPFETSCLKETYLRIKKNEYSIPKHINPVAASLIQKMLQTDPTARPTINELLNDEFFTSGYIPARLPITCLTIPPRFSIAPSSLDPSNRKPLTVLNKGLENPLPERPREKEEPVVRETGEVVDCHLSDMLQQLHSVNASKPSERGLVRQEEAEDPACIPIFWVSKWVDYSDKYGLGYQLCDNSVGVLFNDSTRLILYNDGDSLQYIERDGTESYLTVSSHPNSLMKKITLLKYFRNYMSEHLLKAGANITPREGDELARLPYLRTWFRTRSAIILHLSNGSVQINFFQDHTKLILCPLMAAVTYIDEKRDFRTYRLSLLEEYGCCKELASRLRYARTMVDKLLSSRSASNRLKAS
Experimental: PLK1 kinase activity was assayed using human CDC25C phosphatase as a substrate. The assays were carried out using 96-well microtitre plates by incubating CDC25C (2 μg/well) with 1 μg/well of purified human recombinant PLK1 and varying concentrations of the candidate compound in a total volume of […] of 20 mM Tris/HCl buffer pH 7.5, supplemented with 25 mM β-glycerophosphate, 5 mM EGTA, 1 mM DTT, and 1 mM NaVO3. Reaction was initiated by the addition of 100 μM ATP and 0.5 μCi of [γ-^32P]-ATP. The reaction mixture was incubated at 30° C. for 1 h, then stopped with 75 mM aq orthophosphoric acid, transferred onto a 96-well P81 filter plate (Whatman), dried, and the extent of CDC25C phosphorylation was assessed by scintillation counting using a Packard TopCount plate reader.
Adenosine, N-ethyhnaleimide, iodoacetamide, and thimerosal were obtained from Sigma Chemical Co. 2′-Thioadenosine was obtained from Calbiochem. […] All compounds were made up as 10 mM stocks in neat dimethylsulfoxide and fresh dilutions to the desired concentrations were made in assay buffer prior to the assay. The candidate compounds were incubated with the enzyme in the kinase assay buffer for the duration of the assay, usually 1 hour at 30° C. […] For each compound duplicate samples, one of which contained dithiothreitol (DTT) at 1 mM final concentration, were assayed.

Human recombinant CKII = target: T2, Human recombinant CKII (Homo sapiens, UniProt P68400); test: Casein Kinase II (CKII) assay; type: biochemical; details: at concentrations up to 0.2 mM
T2 construct: purchased New England Biolabs
T2 sequence (P68400 whole entry): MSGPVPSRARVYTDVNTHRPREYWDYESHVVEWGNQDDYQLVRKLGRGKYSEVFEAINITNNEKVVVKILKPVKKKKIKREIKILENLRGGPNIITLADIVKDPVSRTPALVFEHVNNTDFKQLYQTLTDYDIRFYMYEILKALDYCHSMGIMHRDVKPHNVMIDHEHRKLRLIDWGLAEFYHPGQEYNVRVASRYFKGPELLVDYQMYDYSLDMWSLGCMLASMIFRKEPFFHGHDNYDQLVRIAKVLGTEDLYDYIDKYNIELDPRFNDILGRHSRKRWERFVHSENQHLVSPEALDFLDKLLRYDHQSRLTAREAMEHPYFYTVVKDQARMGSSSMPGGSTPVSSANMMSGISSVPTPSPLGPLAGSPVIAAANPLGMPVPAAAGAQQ
T2 sequence (P67870 whole entry partner): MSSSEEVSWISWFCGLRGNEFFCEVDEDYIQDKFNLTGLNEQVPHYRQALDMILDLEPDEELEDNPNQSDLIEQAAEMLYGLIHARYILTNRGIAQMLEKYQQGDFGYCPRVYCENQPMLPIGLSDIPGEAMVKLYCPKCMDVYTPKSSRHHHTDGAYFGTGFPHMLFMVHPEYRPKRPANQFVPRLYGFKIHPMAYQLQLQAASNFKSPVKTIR
Experimental: Reaction was initiated by the addition of 100 μM ATP and 0.25 μCi of [γ-^32P]-ATP. The reaction mixture was incubated at 30° C. for 15 minutes, then stopped with 75 mM aq orthophosphoric acid, transferred onto a 96-well P81 filter plate (Whatman), dried, and the extent of peptide phosphorylation was assessed by scintillation counting using a Packard TopCount plate reader.

PLK1 [2] = target: T1, PLK1; test: Kinetic analysis of PLK1 inhibition (ATP dependence); type: biochemical
PKA = PKA (Homo sapiens, UniProt P17612); details: Table 14, published values; cited from earlier work
CDK2 = CDK2 (Homo sapiens, UniProt P24941); test: CDK2 inhibition; type: biochemical; details: Table 12
[3] = Kinase inhibition, flavonoid compounds, read-out: Plk1 IC50
[4] = in the absence of dithiothreitol, read-out: IC50 (μM) − DTT
[5] = in the presence of dithiothreitol (1 mM), read-out: IC50 (μM) + DTT
[6] = Table 14, read-out: Plk1 (IC50)
[7] = read-out: IC50 with respect to PLK1

O=c1c(O)c(-c2ccc(O)cc2)oc2cc(O)cc(O)c12 [Kaempferol]
IC50 (PLK1 [1]; [3]): > 100 µM

O=S(=O)(NCCNC/C=C/c1ccc(Br)cc1)c1cccc2cnccc12 [Inhibitor H89]
inhibition of PLK1 (PLK1 [1]): none of these compounds caused any inhibition

Nc1ncnc2c1ncn2[C@@H]1O[C@H](CO)[C@@H](O)[C@H]1O [Adenosine]
inhibition of PLK1 function (PLK1 [1]): did not inhibit
IC50 (PLK1 [1]; [4]): > 200 µM
IC50 (PLK1 [1]; [5]): > 200 µM
inhibition of CKII enzymatic activity (Human recombinant CKII): No significant inhibition
mode of PLK1 inhibition with respect to ATP (PLK1 [2]): none of these compounds were classical competitive inhibitors

Cl.NCCNS(=O)(=O)c1cccc2c(Cl)cccc12 [Inhibitor A3]
IC50 (PLK1 [1]; [6]): > 500 µM
inhibition of PLK1 (PLK1 [1]): none of these compounds caused any inhibition
IC50 (PKA): 11 µM

O=c1c(O)c(-c2ccccc2)oc2cc(O)cc(O)c12 [gangolin]
PLK1 inhibition, result in words (PLK1 [1]): inactivity

COC[C@H]1OC(=O)c2coc3c2[C@@]1(C)C1=C(C3=O)[C@@H]2CCC(=O)[C@@]2(C)C[C@H]1OC(C)=O [Wortmannin]
PLK1 inhibition, result in words (PLK1 [1]): very potent inhibitor
IC50 (CDK2): > 10 µM
mode of PLK1 inhibition with respect to ATP (PLK1 [2]): totally independent of ATP; also recorded: completely ATP-independent

COc1ccc(-c2oc3cc(O)cc(O)c3c(=O)c2O)cc1 [kaempferide]
PLK1 inhibition, result in words (PLK1 [1]): inactivity
IC50 (PLK1 [1]; [3]): > 100 µM

CCCCCCOC(=O)[C@]1(O)C[C@@H]2O[C@@]1(C)n1c3ccccc3c3c4c(c5c6ccccc6n2c5c31)C(=O)NC4 [KT5720]
IC50 (PLK1 [1]; [6]): > 500 µM
inhibition of PLK1 (PLK1 [1]): none of these compounds caused any inhibition
IC50 (PKA): 0.056 µM

Purvalanol A
PLK1 inhibition, result in words (PLK1 [1]): moderate inhibition
IC50 (PLK1 [1]; Table 12, read-out: Plk1 IC50): 5 µM
IC50 (PLK1 [1]; [6]): 10 µM
IC50 (PKA): > 100 µM

O=C(N[C@@H]1CNCCC[C@H]1OC(=O)c1cc(O)c(C(=O)c2c(O)cccc2C(=O)O)c(O)c1)c1ccc(O)cc1 [Balanol]
PLK1 inhibition, result in words (PLK1 [1]): no detectable inhibition
IC50 (PLK1 [1]; [6]): > 200 µM

O=c1c(O)c(-c2ccc(O)cc2O)oc2cc(O)cc(O)c12 [morin hydrate]
PLK1 inhibition, result in words (PLK1 [1]): the most potent in the flavonoid series
IC50 (PLK1 [1]; [3]): 12.6 ± 1.4 µM
IC50 (PLK1 [1]; [7]): 12 µM

Nc1ncnc2c1ncn2[C@@H]1O[C@H](CS)[C@@H](O)[C@H]1O [5′-Thioadenosine, 5′-Deoxy-5′-thioadenosine]
potency relative to 2′-thioadenosine on PLK1 (PLK1 [1]): about 3 fold
inhibition of PLK1 function (PLK1 [1]): did
IC50 (PLK1 [1]; [4]): 39 µM
IC50 (PLK1 [1]; [5]): > 200 µM
inhibition of CKII enzymatic activity (Human recombinant CKII): No significant inhibition
mode of PLK1 inhibition with respect to ATP (PLK1 [2]; listed as 5-′thioadenosine): none of these compounds were classical competitive inhibitors
mode of PLK1 inhibition with respect to ATP (PLK1 [2]; listed as 5′-thioadenosine): dependent on ATP concentration but not competitive with ATP

O=c1c(O)c(-c2cc(O)c(O)c(O)c2)oc2cc(O)cc(O)c12 [Myricetin]
PLK1 inhibition, result in words (PLK1 [1]): lack of inhibition
IC50 (PLK1 [1]; [3]): > 100 µM
IC50 (PLK1 [1]; [7]): > 100 µM

CCN1C(=O)C=CC1=O [N-ethylmaleimide]
PLK1 inhibition, result in words (PLK1 [1]): to some extent
IC50 (PLK1 [1]; [4]): 55 µM
IC50 (PLK1 [1]; [5]): > 200 µM
inhibition of CKII enzymatic activity (Human recombinant CKII): No significant inhibition

O=c1c(O)c(-c2cc(O)c(O)c(O)c2)oc2cc(O)ccc12 [robinetin]
PLK1 inhibition, result in words (PLK1 [1]): weak inhibition
IC50 (PLK1 [1]; [3]): 60 µM

Nc1ncnc2c1ncn2[C@@H]1O[C@H](CO)[C@@H](O)[C@H]1S [2′-Thioadenosine]
inhibition of PLK1 function (PLK1 [1]): did
IC50 (PLK1 [1]; [4]): 120 µM
IC50 (PLK1 [1]; [5]): > 200 µM
inhibition of CKII enzymatic activity (Human recombinant CKII): No significant inhibition
mode of PLK1 inhibition with respect to ATP (PLK1 [2]): none of these compounds were classical competitive inhibitors

O=c1c(O)c(-c2ccccc2O)oc2cc(O)cc(O)c12 [Datescetin]
PLK1 inhibition, result in words (PLK1 [1]): inactive

O=c1c(O)c(-c2ccc(O)cc2)oc2cc(O)cc(O)c12 [kaepmpferol]
PLK1 inhibition, result in words (PLK1 [1]): lack of inhibition

CNc1nc(C)c(-c2ccnc(Nc3ccc(O)cc3)n2)s1 [4-[4-(4-methyl-2-methylamino-thiazol-5-yl)-pyrimidin-2-ylamino]-phenol]
IC50 (PLK1 [1]; [7]): 4 µM

Cc1ncc2ccccc2c1C#N [4-Cyano-3-methylisoquinoline]
IC50 (PLK1 [1]; [6]): > 500 µM
inhibition of PLK1 (PLK1 [1]): none of these compounds caused any inhibition
IC50 (PKA): 0.03 µM

O=c1c(-c2ccc(O)cc2)coc2cc(O)ccc12 [daidzein]
PLK1 inhibition, result in words (PLK1 [1]): inactivity
IC50 (PLK1 [1]; [3]): > 100 µM

C[CH2][Hg][S]c1ccccc1C(=O)[O-].[Na+] [Thimerosal]
PLK1 inhibition, result in words (PLK1 [1]): to some extent
IC50 (PLK1 [1]; [4]): 22 µM
IC50 (PLK1 [1]; [5]): > 200 µM
inhibition of CKII enzymatic activity (Human recombinant CKII): No significant inhibition
mode of PLK1 inhibition with respect to ATP (PLK1 [2]): none of these compounds were classical competitive inhibitors

O=c1c(O)c(-c2ccccc2O)oc2cc(O)cc(O)c12 [Datescefin]
IC50 (PLK1 [1]; [3]): > 100 µM

O=c1cc(-c2ccc(O)c(O)c2)oc2cc(O)cc(O)c12 [Luteolin]
IC50 (PLK1 [1]; [3]): > 100 µM

NC(=O)CI [Iodoacetamide]
PLK1 inhibition, result in words (PLK1 [1]): to some extent
IC50 (PLK1 [1]; IC50 (μM) + DTT, in the presence of dithiothreitol (1 mM)): > 200 µM
IC50 (PLK1 [1]; IC50 (μM) − DTT, in the absence of dithiothreitol): 83 µM
inhibition of CKII enzymatic activity (Human recombinant CKII): No significant inhibition

O=c1c(O)c(-c2ccc(O)c(O)c2)oc2cc(O)ccc12 [fisetin]
PLK1 inhibition, result in words (PLK1 [1]): inactivity
IC50 (PLK1 [1]; [3]): > 100 µM

O=c1c(O)c(-c2ccccc2)oc2cc(O)cc(O)c12 [Galangin]
IC50 (PLK1 [1]; [3]): > 100 µM
